Earlier results as cited in patent US20240166664A1, “TRIHETEROCYCLIC COMPOUND, PREPARATION METHOD THEREFOR, AND APPLICATION THEREOF” (SHANGHAI APEIRON THERAPEUTICS COMPANY LIMITED, priority 2021, published 2024).

Test system: tumor
Conditions: preclinical experimental data; cited from earlier work

Question: What does the source list for `C[C@@H](COCCC(=O)N1CCN(c2ncc(C(F)(F)F)cn2)CC1)Nc1cn[nH]c(=O)c1C(F)(F)F` [RBN-2397]?
Answer: anti-tumor growth effect: potent anti-tumor growth effect increasing in a dose-dependent manner; tumor-specific adaptive immune memory: induces tumor-specific adaptive immune memory
